The source of these data is patent US11478471B2, “Methods and compositions for treating diabetes, metabolic syndrome and other conditions” (priority 2005, dated 2022).

Where two headings read alike, the source gives them in different places.

For data set [1] the following is noted: cited from earlier work; for AUC 0-12 / Cmax / T ½: humans.
The subject of data set [2] is P450 2B1, 2B2, 1A1, 2C11, 3A. Particulars: read-out: IC50, progesterone 16α hydroxylase (2B1, 2B2, 1A1, 2C11, 3A); Rotstein et al. 1992; cited from earlier work.
For data set [3] the following is noted: dog, in vivo, po, 40 mg/kg/day.
The mark [4] stands for this setting: following fifth 200 mg dose of racemic ketoconazole (every twelve hours).
Setting [5] is: following first 200 mg dose of racemic ketoconazole.
Where [6] appears, read: normal volunteers, 200 mg dose of the racemic mixture.

For `CC(=O)N1CCN(c2ccc(OC[C@@H]3CO[C@@](Cn4ccnc4)(c4ccc(Cl)cc4Cl)O3)cc2)CC1` [DIO-902, 2S,4R cis-1-acetyl-4-[4-[[2-(2,4-dichlorophenyl)-2-(1H-imidazol-1-ylmethyl)-1,3-dioxolan-4-yl]methoxyl]phenyl]piperazine], in data set [1] (setting [4]), the “AUC 0-12” value was 538 ± 74 µg·min/mL, the Cmax is 1530 ± 190 ng/mL and the “T ½” value was 3.62 ± 0.5 h. Also, in data set [1] (setting [5]), the “AUC 0-12” value is 302 ± 38 µg·min/mL, the Cmax is 1060 ± 130 ng/mL and the “T ½” value was 2.22 ± 0.233 h. In data set [1] (setting [6]), the maximum plasma concentration entry was “approximately 3.6 μg/mL” and the “time of maximum plasma concentration” value is 2 h. In data set [2], the IC50 was 84 µM. Moreover, the “reduction in total white cell numbers” value in data set [3] is 20%.

In general, Cmax refers to the maximum level reached in the sampled fluid or tissue. For orientation: IC50 means the midpoint of a concentration-inhibition curve.
